Measurements from paper PMC10572743 (International Journal of Molecular Sciences, 2023).
Read-outs that look alike come from different tables or passages of the source. Marks after values point to notes of the source that are not given here.

Tests used:
[1] = tested on: TNF-α production in PBMC stimulated with LPS; assay: Inhibition of TNF-α production in PBMCs stimulated with LPS (ELISA); type: cell-based; conditions: Homo sapiens, average of 2 independent experiments (donors), LPS 1 ng/mL, 24 h, read-out: IC50/μM (av.) PMBC-LPS/TNF-α
Protocol: PBMC isolation. Human peripheral blood mononuclear cells (PBMCs) were isolated from buffy coats obtained from healthy adult volunteers. The buffy coats were diluted with sterile PBS and layered over Lymphoprep (Axis-Shield Diagnostics, Dundee, UK). Tubes were centrifuged for 35 min at 400× g (RT; acceleration and break turned off). After centrifugation, the mononuclear ring was collected, transferred into a new 50 mL tube, and washed thrice with sterile PBS. The remaining erythrocytes were lysed with an isotonic solution of ammonium chloride (150 mM; Kemika, Zagreb, Croatia).
Treatment and stimulation of human PBMCs. Immediately after isolation, 200,000 PBMCs were seeded per well of a 96-well plate. Compounds were dissolved in 100% dimethyl sulfoxide (DMSO, Sigma, Darmstadt, Germany), and serial dilutions in DMSO were prepared and added to cells, with starting concentration for test compounds 100 µM or 1 µM for reference dexamethasone. […] Plates were incubated for 24 h at 37 °C, 5% CO2, followed by the collection of supernatants for measurement of TNF-α and cell viability assessment.
Enzyme-linked immunosorbent assay (ELISA) and cytotoxicity analysis. TNFα concentration in PBMC supernatants was measured using ELISA assay, using antibodies obtained from BD Pharmingen (San Diego, CA, USA) and recombinant human TNFα protein (standard) from R&D Systems (Minneapolis, MN, USA). Lumitrac 600 384-well plates (Greiner Bio-One, Kremsmünster, Austria) were coated overnight with 1 µg/mL of TNFα capture antibody diluted in phosphate-buffered saline (PBS, Thermo Fisher Scientific, Waltham, MA, USA), followed by a washing step and blocking with 5% sucrose in assay diluent (1% bovine serum albumin (BSA; Sigma, Darmstadt, Germany) in PBS) for 4 h at RT. After the blocking step, the plates were washed, and samples/standards were added to the plates. After overnight incubation at 4 °C, detection antibodies diluted in assay diluent to a final concentration of 250 ng/mL were added. Following incubation for 2 h at RT, plates were washed, and streptavidin-HRP (Thermo Fisher Scientific, Waltham, MA, USA) solution was added (final concentration 500 ng/mL, prepared in assay diluent). Plates were incubated for 20 min at RT in the dark and washed, followed by adding Luminol substrate (Sigma, Darmstadt, Germany). […] To evaluate cell viability, Cell Titer Glo reagent was used (Promega, Madison, WI, USA) according to the manufacturer’s instructions.
(§1) Data analysis. For ELISA, the blank was subtracted from measured RLU values, and TNFα concentrations in samples were interpolated from the standard curve. QC parameters for each plate were calculated from raw data. […] For viability assessment, the average luminescence value was calculated from all trigger vehicle samples, and the percentage of vehicle value was calculated for all samples. The compound effect was considered cytotoxic if reduction from a vehicle was ≥20%, and these concentrations were excluded from further analysis. IC50 values of tested compounds were determined in GraphPad Prism 9 software using nonlinear regression curve fit (four parameters, with variable slope).

AChE = AChE (Electrophorus electricus, UniProt O42275); assay: biochemical; type: biochemical; conditions: for inhibition: at maximal concentration tested 350 μM; for inhibition at 250 µM: at maximal concentration tested 250 μM; for selectivity AChE over BChE: from IC50 values of Table 2; for inhibition at 500 µM: at maximal concentration tested 500 μM
Sequence of AChE (O42275 24-633): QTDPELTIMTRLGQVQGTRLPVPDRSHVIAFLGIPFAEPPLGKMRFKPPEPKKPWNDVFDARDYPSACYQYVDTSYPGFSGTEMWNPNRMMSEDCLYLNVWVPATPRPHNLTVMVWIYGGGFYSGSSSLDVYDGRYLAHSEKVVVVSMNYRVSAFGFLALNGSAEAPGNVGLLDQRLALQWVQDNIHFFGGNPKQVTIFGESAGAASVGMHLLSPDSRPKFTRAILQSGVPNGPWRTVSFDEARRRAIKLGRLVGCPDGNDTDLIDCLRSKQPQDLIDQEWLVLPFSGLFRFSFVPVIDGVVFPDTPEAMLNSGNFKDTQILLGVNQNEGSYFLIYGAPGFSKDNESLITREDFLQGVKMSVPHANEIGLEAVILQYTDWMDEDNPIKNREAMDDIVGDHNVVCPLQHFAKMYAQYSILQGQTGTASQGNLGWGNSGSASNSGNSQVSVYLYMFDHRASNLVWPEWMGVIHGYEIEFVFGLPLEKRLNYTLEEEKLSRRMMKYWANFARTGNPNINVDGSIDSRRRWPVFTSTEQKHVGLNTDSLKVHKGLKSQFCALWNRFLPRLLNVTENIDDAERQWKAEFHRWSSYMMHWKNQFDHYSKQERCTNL

BChE = BChE (Equus caballus, UniProt P81908); assay: biochemical; type: biochemical; conditions: for inhibition at 350 µM / inhibition at 250 µM / inhibition at 500 µM: read-out: BChE % Inhibition
Sequence of BChE (P81908 whole entry): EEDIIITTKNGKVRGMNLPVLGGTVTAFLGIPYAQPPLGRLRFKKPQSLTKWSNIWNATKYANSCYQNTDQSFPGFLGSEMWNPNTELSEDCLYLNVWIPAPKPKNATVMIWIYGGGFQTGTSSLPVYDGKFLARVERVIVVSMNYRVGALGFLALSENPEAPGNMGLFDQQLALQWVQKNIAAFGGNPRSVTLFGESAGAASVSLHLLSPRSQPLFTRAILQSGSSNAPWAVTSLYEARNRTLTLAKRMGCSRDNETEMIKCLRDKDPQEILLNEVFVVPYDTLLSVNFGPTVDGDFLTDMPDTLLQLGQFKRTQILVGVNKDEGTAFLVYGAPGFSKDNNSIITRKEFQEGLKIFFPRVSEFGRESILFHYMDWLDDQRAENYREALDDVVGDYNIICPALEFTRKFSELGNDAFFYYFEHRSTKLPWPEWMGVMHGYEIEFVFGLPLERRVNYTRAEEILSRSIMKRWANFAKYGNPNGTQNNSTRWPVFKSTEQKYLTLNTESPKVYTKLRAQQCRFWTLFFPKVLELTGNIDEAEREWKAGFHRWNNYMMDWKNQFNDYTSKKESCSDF

[2] = tested on: TNF-α production in PBMC stimulated with LPS; conditions: previous research; read-out: PMBC-LPS/TNFα; cited from earlier work
PBMCs = assay: Cell viability of PBMCs after incubation with compounds (ATP, Cell Titer Glo); type: cell-based
Protocol: The potential to act anti-inflammatory was evaluated for 1,2,3-triazole derivatives 1–31 in vitro in an assay where PBMCs from 2 healthy donors were stimulated with LPS to induce the immune response. As a measurement of response, the pro-inflammatory cytokine TNF-α was determined. […] […].
Treatment and stimulation of human PBMCs. Immediately after isolation, 200,000 PBMCs were seeded per well of a 96-well plate. Compounds were dissolved in 100% dimethyl sulfoxide (DMSO, Sigma, Darmstadt, Germany), and serial dilutions in DMSO were prepared and added to cells, with starting concentration for test compounds 100 µM or 1 µM for reference dexamethasone. After pre-incubation for 1h with the compounds, lipopolysaccharide (LPS) from E. coli 0111:B4 (Sigma, Darmstadt, Germany) was added to cells at 1 ng/mL final concentration. Plates were incubated for 24 h at 37 °C, 5% CO2, followed by the collection of supernatants for measurement of TNF-α and cell viability assessment.
Enzyme-linked immunosorbent assay (ELISA) and cytotoxicity analysis. TNFα concentration in PBMC supernatants was measured using ELISA assay, using antibodies obtained from BD Pharmingen (San Diego, CA, USA) and recombinant human TNFα protein (standard) from R&D Systems (Minneapolis, MN, USA). Lumitrac 600 384-well plates (Greiner Bio-One, Kremsmünster, Austria) were coated overnight with 1 µg/mL of TNFα capture antibody diluted in phosphate-buffered saline (PBS, Thermo Fisher Scientific, Waltham, MA, USA), followed by a washing step and blocking with 5% sucrose in assay diluent (1% bovine serum albumin (BSA; Sigma, Darmstadt, Germany) in PBS) for 4 h at RT. After the blocking step, the plates were washed, and samples/standards were added to the plates. […]. Following incubation for 2 h at RT, plates were washed, and streptavidin-HRP (Thermo Fisher Scientific, Waltham, MA, USA) solution was added (final concentration 500 ng/mL, prepared in assay diluent). Plates were incubated for 20 min at RT in the dark and washed, followed by adding Luminol substrate (Sigma, Darmstadt, Germany). Luminescence was measured using EnVision 2104 Multilabel Plate Reader (PerkinElmer, MA, USA), with an exposition time of 0.1 s. […]
as §1, with “The compound effect was considered cytotoxic if reduction from a vehicle was ≥20%, and these concentrations were excluded from further analysis.” left out

[3] = PBMC, ATP levels, highest tested concentration

## Cc1cc2c(ccc3nnn(Cc4cccs4)c32)s1 [Compound 11, 7-methyl-1-(thiophen-2-ylmethyl)-1H-thieno[3′,2′:3,4]benzo[1,2-d][1–3]triazole]
[1]
  IC50: 38.7 µM
AChE
  IC50: 218 µM
  inhibition: 71.3 ± 0.3%
BChE
  IC50: 123 µM
  inhibition at 350 µM: 72.3 ± 5.6%

## C=CCCCn1nnc2ccc3sccc3c21 [Compound 13, 1-(pent-4-en-1-yl)-1H-thieno[3′,2′:3,4]benzo[1,2-d][1–3]triazole]
[1]
  IC50: 21.3 µM
AChE
  inhibition at 250 µM: 46.4 ± 2.5%
BChE
  IC50: 40.7 µM
  inhibition at 250 µM: 86.5 ± 5%
BChE; from IC50 values of Table 2
  selectivity BChE over AChE: selective inhibition for BChE

## COc1ccc2ccc3nnn(Cc4cccc(F)c4)c3c2c1 [Compound 5, 1-(3-fluorobenzyl)-8-methoxy-1H-naphtho[1,2-d][1–3]triazole]
[1]
  IC50: > 100 µM
AChE
  IC50: 55.5 µM
  inhibition at 250 µM: 80.8 ± 1.8%
  selectivity AChE over BChE: Selective inhibition toward AChE
BChE
  inhibition at 250 µM: 43.8 ± 1.8%

## CC(=O)Nc1nc2c(ccc3sccc32)s1 [Compound 31]
[1]
  IC50: > 100 µM

## CCOC(=O)CCn1nnc2ccc3sccc3c21 [Compound 17]
[1]
  IC50: > 100 µM

## COc1ccc(Cn2nnc3ccc4ccc(OC)cc4c32)cc1 [C]
[2]
  IC50: 2.2 µM

## OCCCCn1nnc2ccc3sccc3c21 [Compound 14]
[1]
  IC50: 38.8 µM

## c1csc(Cn2nnc3ccc4sccc4c32)c1 [Compound 22]
[1]
  IC50: 16.1 µM

## COc1ccc2ccc3nnn(Cc4ccc(F)cc4)c3c2c1 [Compound 4, 1-(4-fluorobenzyl)-8-methoxy-1H-naphtho[1,2-d][1–3]triazole]
[1]
  IC50: 19.1 µM
AChE
  inhibition at 500 µM: 35.1 ± 2%
BChE
  inhibition at 500 µM: 25 ± 0.5%

## c1cc2c(ccc3nnn(CCCN4CCOCC4)c32)s1 [Compound 16]
[1]
  IC50: > 100 µM

## C[C@@H]1C[C@H]2[C@@H]3CCC4=CC(=O)C=C[C@]4(C)[C@@]3(F)[C@@H](O)C[C@]2(C)[C@@]1(O)C(=O)CO [dexamethasone, reference compound]
[1]
  IC50: 0.007 µM

## FC(F)(F)c1ccc(Cn2nnc3c2-c2ccsc2CC3)cc1 [Compound 26]
[1]
  IC50: 9.4 µM
PBMCs; [3]
  cell viability: cell viability reduction

## C=CCn1nnc2ccc3sc(C)cc3c21 [Compound 8, 1-allyl-7-methyl-1H-thieno[3′,2′:3,4]benzo[1,2-d][1–3]triazole]
[1]
  IC50: > 100 µM
AChE
  inhibition: 43.5 ± 2.1%
BChE
  IC50: 206 µM
  inhibition at 350 µM: 62.6 ± 0.2%

## FC(F)(F)c1nc2c(ccc3sccc32)s1 [Compound 30]
[1]
  IC50: > 100 µM

## FC(F)(F)c1ccc(Cn2nnc3ccc4sccc4c32)cc1 [Compound 19]
[1]
  IC50: 10.2 µM
PBMCs
  cell viability: 10.2 **
PBMCs; [3]
  cell viability: cell viability reduction

## COc1cccc(Cn2nnc3ccc4ccc(OC)cc4c32)c1 [Compound 6, 8-methoxy-1-(3-methoxybenzyl)-1H-naphtho[1,2-d][1–3]triazole]
[1]
  IC50: 1.9 µM
AChE
  IC50: 177 µM
  inhibition at 250 µM: 78.6 ± 3.8%
  selectivity AChE over BChE: Selective inhibition toward AChE
BChE
  inhibition at 250 µM: 47.8 ± 0.5%

## C=CCCCn1nnc2ccc3ccc(OC)cc3c21 [Compound 3, 8-methoxy-1-(pent-4-en-1-yl)-1H-naphtho[1,2-d][1–3]triazole]
[1]
  IC50: 12 µM
AChE
  IC50: 51.3 µM
  inhibition at 250 µM: 64.8 ± 5.3%
BChE
  IC50: 53.5 µM
  inhibition at 250 µM: 76.6 ± 1.8%

## CC(C)c1nc2ccc3sccc3c2s1 [Compound 28]
[1]
  IC50: > 100 µM

## C=CCCn1nnc2ccc3ccc(OC)cc3c21 [Compound 2, 1-(but-3-en-1-yl)-8-methoxy-1H-naphtho[1,2-d][1–3]triazole]
[1]
  IC50: 10.4 µM
AChE
  IC50: 91.8 µM
  inhibition at 500 µM: 77.9 ± 3.6%
BChE
  IC50: 110 µM
  inhibition at 500 µM: 80.2 ± 0.7%

## Clc1nc2c(ccc3sccc32)s1 [Compound 29]
[1]
  IC50: > 100 µM

## COc1ccc2ccc3nnn(Cc4cccs4)c3c2c1 [Compound 7, 8-methoxy-1-(thiophen-2-ylmethyl)-1H-naphtho[1,2-d][1–3]triazole]
[1]
  IC50: > 100 µM
AChE
  IC50: 110 µM
  inhibition at 500 µM: 81.4 ± 0.8%
BChE
  IC50: 294 µM
  inhibition at 500 µM: 60.9 ± 0.4%

## COc1ccc2ccc3nnn(C(C)C)c3c2c1 [Compound 1, 1-isopropyl-8-methoxy-1H-naphtho[1,2-d][1–3]triazole]
[1]
  IC50: 8.1 µM
AChE
  IC50: 329 µM
  inhibition at 500 µM: 58.1 ± 1.6%
BChE
  IC50: 261 µM
  inhibition at 500 µM: 65.3 ± 0.7%

## c1cc2c(s1)CCc1nnn(CCCN3CCOCC3)c1-2 [Compound 25]
[1]
  IC50: > 100 µM

## Fc1ccc(Cn2nnc3ccc4sccc4c32)cc1 [Compound 18]
[1]
  IC50: 27.7 µM

## FC(F)(F)Oc1ccc(Cn2nnc3ccc4sccc4c32)cc1 [Compound 20]
[1]
  IC50: 8.9 µM
PBMCs; [3]
  cell viability: cell viability reduction

## Cc1cc2c(ccc3nnn(Cc4ccc(F)cc4)c32)s1 [Compound 9, 1-(4-fluorobenzyl)-7-methyl-1H-thieno[3′,2′:3,4]benzo[1,2-d][1–3]triazole]
[1]
  IC50: > 100 µM
AChE
  IC50: 83 µM
  inhibition: 78.8 ± 1.9%
BChE
  IC50: 69.8 µM
  inhibition at 350 µM: 76.1 ± 0.8%

## COc1ccc(Cn2nnc3ccc4sc(C)cc4c32)cc1 [Compound 10, 1-(4-methoxybenzyl)-7-methyl-1H-thieno[3′,2′:3,4]benzo[1,2-d][1–3]triazole]
[1]
  IC50: 19.2 µM
AChE
  IC50: 66.6 µM
  inhibition: 83.6 ± 3.7%
BChE
  IC50: 99.7 µM
  inhibition at 350 µM: 65.2 ± 0.3%

## c1cc2c(s1)CCc1nnn(CCN3CCOCC3)c1-2 [Compound 24]
[1]
  IC50: > 100 µM

## COc1ccc(CCn2nnc3ccc4sccc4c32)cc1 [Compound 21]
[1]
  IC50: 17 µM

## Cc1nc2c(ccc3sccc32)s1 [Compound 27]
[1]
  IC50: 12.2 µM

## Cc1cc2c(ccc3nnn(Cc4ccco4)c32)s1 [Compound 12, 1-(furan-2-ylmethyl)-7-methyl-1H-thieno[3′,2′:3,4]benzo[1,2-d][1–3]triazole]
[1]
  IC50: 40.6 µM
AChE
  inhibition: 41.8 ± 1%
BChE
  inhibition at 350 µM: 46.1%

## OCCCCn1nnc2c1-c1ccsc1CC2 [Compound 23]
[1]
  IC50: > 100 µM
